{
  "source": "patent US9957311B2",
  "about": "“Surface-binding peptide” (TIKOMED AB, priority 2013, dated 2018)",
  "key": {"[1]": {"experiment": "Binding of fluorescent IP-10 short peptides to titanium foils, fluorescence microscope (Experiment 3)", "conditions": "FITC-labeled peptides 50 μg/ml, 8×8 mm Ti foils, 3 h room temperature, FIG. 7", "description": "5 mg of the different peptides (Table 3), which were labeled with fluorescein isothiocyanate, were dissolved with 1 ml of water with molecular biology degree (Sigma-Aldrich, St. Louis, Mo., USA). Working solutions of the different peptides were diluted further with PBS (PAA Laboratories GmbH, Pasching, Austria) to 50 μg/ml. Briefly, 500 μl of peptide solution was incubated with 8×8 mm Ti foils (Sigma Aldrich, thickness 0.127 mm, 99.7%, cut into 8×8 mm^2 samples) in an orbital shaker (IKA Vibrax VXR basic, Staufen, Germany) for 3 h at room temperature. Experiments were run in duplicate.\nTi foils were rinsed twice with PBS to remove unbound labeled peptides. Remaining liquid was allowed to dry and samples were put on microscope slides. […] Two images of each surface were taken."}, "[2]": {"experiment": "Binding of IP-10 derived peptides to TiO2 P90, absorbance at 206 nm (Experiment 1)", "conditions": "50 μg/mL peptide in PBS, 20 mg TiO2 P90, 3 h room temperature, FIG. 3", "description": "This experiment was conducted to find the exact region of the IP-10 molecule that binds to titanium. In this experiment the effect of TiO2 (diameter ˜14 nm, product number P 90, Aerosil Evonic Ind.) on peptides synthesized from the IP-10 molecule by absorbance measurements using a Spektro U29-10 Hitachi spectrophotometer.\nSeventeen different peptides having sequences of various portion of IP-10 were dissolved in water and thereafter diluted to working solution (50 μg/mL) in phosphate buffered saline (PBS), see Table 1 and FIG. 2.\nThe absorbance of the peptides bound to TiO2 surfaces P90 from Sigma-Aldrich) were measured at 206 nm using a Spektro U29-10 Hitachi spectrophotometer. Briefly, 20 mg TiO2 (P90) was incubated with 250 μl of peptide solution. After 3 h incubation on a shaking device in room temperature, with vortexing every hour, the samples were centrifuged (13 000×g, 3 min) and the supernatant was collected. As a negative control, PBS alone was used and positive control was peptide solution alone. Every sample was made in double and the experiments were repeated."}, "[3]": {"experiment": "Binding of IP-10 derived short peptides to TiO2 P25 particles, absorbance at 206 nm (Experiment 2)", "conditions": "Experiment 2, 50 μg/ml peptide, 25 mg TiO2, 3 h room temperature", "description": "5 mg of eleven peptides (Table 2) were dissolved with 1 ml of water for molecular biology (Sigma-Aldrich, St. Louis, Mo., USA). Working solutions of the different peptides were diluted further with phosphate buffered saline (PBS) (PAA Laboratories GmbH, Pasching, Austria) to 50 μg/ml. 25 mg of TiO2 (P25 from Degussa and P90 from Sigma-Aldrich) were used for the studies. Briefly, 250 μl of peptide solution was incubated with 25 mg of TiO2 powder with different particle size (P25 and P90) in an orbital shaker (IKA Vibrax VXR basic, Staufen, Germany) for 3 h at room temperature. Different controls were used and processed in parallel with the other samples: solutions with peptides alone, PBS alone and P25/P90 in PBS. After this time, all the samples were centrifuged at 13.000×g for 3 min at 20° C. 100 μl of the supernatant solution was carefully collected and placed in a 96-well UV plate and read with PowerWave™ microplate spectrophotometer from BioTek. Absorbances at 206 nm and also spectrum curves for each sample were collected and analysed."}, "[4]": {"experiment": "Binding of IP-10 derived short peptides to nanoparticles, absorbance at 206 nm (Experiment 7)", "conditions": "50 μg/ml peptide, 3 h room temperature, FIG. 14; for binding to TiO2 nanoparticles: 25 mg TiO2 21 nm; for binding to SiO2 particles: 25 mg SiO2 10-20 nm", "description": "Lyophilized peptides were dissolved with water (Sigma, molecular biology degree) to a concentration of 5 mg/ml (Table 6). Working solutions of the different peptides were diluted further with PBS (PAA laboratories) to 50 μg/ml. 25 mg of TiO2 (Titanium(IV) oxide nanopowder, 21 nm particle size, catalog number 718467, Sigma-Aldrich), SiO2 (Silicon dioxide nanopowder, 10-20 nm particle size, catalog number […], Sigma-aldrich), MgO (Magnesium oxide nanopowder, <50 nm particle size, catalog number 549649, Sigma-Aldrich) were used for the studies. Briefly, 250 μl of peptide solution containing 50 μg/ml was incubated with 25 mg of the materials in an orbital shaker for 3 h at room temperature. Different controls were used and processed in parallel with the other samples: solutions with peptides alone, PBS alone and TiO2/SiO2/MgO in PBS. After this time, all the samples were centrifuged at 13.000×g for 3 min at 20° C. 100 μl of the supernatant solution was carefully collected and placed in a 96-well UV plate and read with PowerWave™ microplate spectrophotometer from BioTek. Absorbances at 206 nm and also spectrum curves for each sample were collected and analyzed."}, "[5]": {"system": "integrin β3", "experiment": "Immunocytochemistry of integrin β3 in MC3T3-E1 cells on peptide-coated Ti", "type": "cell-based", "conditions": "FIG. 12; for integrin β3 staining: after 72 h of culture", "description": "(§1) Under aseptic conditions, implants were immersed in a 3:7 (v/v) HNO3-DI water solution for 30 min at room temperature. Then, they were rinsed with milliQ water and placed in a covered milliQ water bath for 24 h. Implants were dried with N2 and were placed in a 96-well plates. Then, 200 μl of 50 μg/ml peptide solutions in PBS were added to each implant. Adsorption took place for 24 h at 37° C. in a humidified atmosphere. After 24 h peptide solutions were collected and surfaces were washed with 200 μl of PBS and air-dried in order to perform in vitro experiments.\nMC3T3-E1 cells were routinely cultured at 37° C. in a humidified atmosphere of 5% CO2, and maintained in α-MEM supplemented with 10% FBS and antibiotics (50 IU penicillin/ml and 50 μg streptomycin/ml). 7.0×10^3 cells were seeded on the peptide-coated implants. Trypan blue stain was used to determine total and viable cell number. The same number of cells was cultured in parallel in plastic culture plates in the experiment. All experiments were performed after 4 passages of the MC3T3-E1 cells.\nCells grown for 24 and 72 h on the surfaces were fixed for 15 min with 4% formaldehyde in PBS at room temperature. Cells were incubated with 0.1% Triton X-100 for 5 min, 1% bovine serum albumin for 30 min and then with anti-integrin beta-3 antibody for 1 h at 1:50 dilution in PBS. Then, a Cy3-conjugated goat anti-rabbit IgG was used as secondary antibody for 1.5 h at 1:200 dilution in PBS. For actin cytoskeleton visualization, cells were stained with phalloidin-FITC 5 μg/mL in PBS for 30 min. Cells were washed with PBS and coin-shaped samples were placed on slides. Finally, a drop of Fluoroshield with DAPI was added and cover glasses were mounted on the samples. Two samples of each group were used to perform the experiment and two images of each sample were taken with the confocal microscope (Leica DMI 4000B equipped with Leica TCS SPE laser system)."}, "[6]": {"system": "MC3T3-E1 cells", "experiment": "DNA quantification (cell number) of cells on peptide-coated Ti", "type": "cell-based", "conditions": "48 h culture on Ti coated with 50 μg/ml peptide, FIG. 9", "description": "as §1, with “Absorption” for “Adsorption”, “cell” for “in vitro”, “experiments. The surfaces were denoted Ti (uncoated Ti), P1 (Ti coated with IP10-RGD), P2 (Ti coated with IP10mut-RGD), P3 (Ti coated with IP10-RGDmut) and P4 (Ti coated with IP10mut-RGDmu).” for “experiments.”\nMC3T3-E1 cells were routinely cultured at 37° C. in a humidified atmosphere of 5% CO2, and maintained in α-minimum essential medium (α-MEM) supplemented with 10% fetal bovine serum (FBS) and antibiotics (50 IU penicillin/ml and 50 μg streptomycin/ml). 7.0×10^3 cells were seeded on the peptide-coated implants. Trypan blue stain was used to determine total and viable cell number. The same number of cells was cultured in parallel in plastic culture plates in the experiment. All experiments were performed after 15 passages of the MC3T3-E1 cells.\nCulture media was removed from wells and plates were frozen at −80° C. until the experiment was carried out. At the day of analysis, 100 μl of distilled water were added to each well. Plates were incubated for 1 hour at room temperature. Again, plates were frozen at −80° C. to lysate cells. Plates were thawed until reaching room temperature and 100 μl of Hoechst 33258 at 20 μg/ml in THE buffer were added. Then, 200 μl aliquots were transferred to 96-well fluorescence plates and a spectrophotometer was set to record fluorescence. Relative fluorescence units were correlated with the cell number using a linear standard curve."}},
  "note": "“Also recorded” adds a separate entry of the source.",
  "data": [
    {"substance": "TMKKKPESCF (IP-10 derived peptide linked to randomized tag sequence) [IP10a]", "values": [
      {"measurement": "signal from the fluorescent peptides bound to Ti", "setting": "[1]", "result": "lower than for IP10 but higher than for IP10r"}
    ]},
    {"substance": "IIATMKKKGEKRCLNPESKA (listed as Homo sapiens) [Peptide 5]", "values": [
      {"measurement": "binding to TiO2 P90 (percentage of peptides absorbed, ranking)", "setting": "[2]", "result": "bound most"}
    ]},
    {"substance": "KKKGE (listed as Homo sapiens) [IP4]", "values": [
      {"measurement": "binding to TiO2 particles (in words)", "setting": "[3]", "result": "very strong binding"},
      {"measurement": "binding to TiO2 nanoparticles", "setting": "[4]", "result": "higher binding"}
    ]},
    {"substance": "KKGEI (IP-10 derived peptide) [IP5]", "values": [
      {"measurement": "binding to TiO2 particles (in words)", "setting": "[3]", "result": "very strong binding"}
    ]},
    {"substance": "ATMKK (listed as Homo sapiens) [IP1]", "values": [
      {"measurement": "binding to TiO2 particles (in words)", "setting": "[3]", "result": "very strong binding"}
    ]},
    {"substance": "PESCF (Randomized tag sequence) [IP10r]", "values": [
      {"measurement": "signal from the fluorescent peptides bound to Ti", "setting": "[1]", "result": "lowest"}
    ]},
    {"substance": "MKKKGEGGGGGGGGRGES (IP-10 derived peptide connected to mutated RGD motif via poly-G-linker) [Peptide P3]", "values": [
      {"measurement": "integrin β3 signal", "setting": "[5]; after 24 h of culture", "result": "showed integrin β3 signal"},
      {"measurement": "integrin β3 staining", "setting": "[5]", "result": "no clear staining; also recorded: disappeared"}
    ]},
    {"substance": "MTTTGEGGGGGGGGRGES (Mutated IP-10 derived peptide connected to mutated RGD motif via poly-G-linker) [Peptide P4]", "values": [
      {"measurement": "number of cells (DNA quantification)", "setting": "[6]", "result": "lowest"},
      {"measurement": "number of cells (DNA quantification)", "setting": "[6]; listed as double mutant peptide sequence", "result": "lastly"},
      {"measurement": "integrin β3 staining", "setting": "[5]", "result": "no clear staining"}
    ]},
    {"substance": "MTTTGEGGGGGGGGRGDS (Mutated IP-10 derived peptide connected to RGD motif via poly-G-linker) [Peptide P2]", "values": [
      {"measurement": "integrin β3 staining", "setting": "[5]", "result": "no clear staining"}
    ]},
    {"substance": "RCLNP (listed as Homo sapiens) [IPF]", "values": [
      {"measurement": "binding to SiO2 particles", "setting": "[4]", "result": "binding"},
      {"measurement": "binding to TiO2 nanoparticles", "setting": "[4]", "result": "binding"}
    ]},
    {"substance": "IKNLLKAVSKERSKRSP (listed as Homo sapiens) [Peptide 6]", "values": [
      {"measurement": "binding to TiO2 P90 (percentage of peptides absorbed, ranking)", "setting": "[2]", "result": "bound most"}
    ]},
    {"substance": "FCSEPKKKMT (IP-10 derived peptide linked to randomized tag sequence) [IP10b]", "values": [
      {"measurement": "signal from the fluorescent peptides bound to Ti", "setting": "[1]", "result": "lower than for IP10 but higher than for IP10r"}
    ]},
    {"substance": "TMKKK (listed as Homo sapiens) [IP2]", "values": [
      {"measurement": "binding to TiO2 particles (in words)", "setting": "[3]", "result": "very strong binding; also recorded: best binding sequence"},
      {"measurement": "binding to TiO2 nanoparticles", "setting": "[4]", "result": "higher binding"}
    ]},
    {"substance": "KRCLN (listed as Homo sapiens) [IPE]", "values": [
      {"measurement": "binding to SiO2 particles", "setting": "[4]", "result": "binding"},
      {"measurement": "binding to TiO2 nanoparticles", "setting": "[4]", "result": "binding"}
    ]},
    {"substance": "MKKKG (listed as Homo sapiens) [IP3]", "values": [
      {"measurement": "binding to TiO2 particles (in words)", "setting": "[3]", "result": "very strong binding"},
      {"measurement": "binding to TiO2 nanoparticles", "setting": "[4]", "result": "higher binding"}
    ]}
  ]
}
